{
  "source": "patent EP1152011A1",
  "about": "“PEPTIDES INHIBITING VASCULAR ENDOTHELIAL CELL MIGRATION” (KYOWA HAKKO KOGYO CO., LTD., priority 1999, dated 2000)",
  "note": "Residues, ends and D or L forms follow the SMILES beside them.",
  "data": [
    {"tested_on": "Swine aorta endothelial cells", "test": "Measurement of activity inhibiting swine vascular endothelial cell migration", "format": "cell-based", "settings": "test compound at 10 µmol/L; 6 hours pre-culture, cells scraped off with razor blade, then 24 hours culture; 0.1% bovine serum albumin-containing Dulbecco's modified Eagle medium; value ± SD", "from_the_text": "Measurement of activity inhibiting swine vascular endothelial cell migration: Swine aorta endothelial cells (5th to 7th generations) were suspended in the 10% fetus calf serum-containing Dulbecco's modified Eagle medium and inoculated at a cell density of 32,000 cells/cm^2 in a 6-well plate, for culturing until the cells formed a single layer over the whole bottom of the culture dish. Subsequently, the culture broth was exchanged to the 0.1% bovine serum albumin-containing Dulbecco's modified Eagle medium containing a test compound at a concentration of 10 µmol/L, followed by culturing for 6 hours. Then, a part of the cells on the bottom of the culture dish was scraped off using a razor blade. Subsequently, the culture broth was exchanged to the 0.1% bovine serum albumin-containing Dulbecco's modified Eagle medium containing a test compound in a concentration of 10 µmol/L, followed by culturing for 24 hours. After immobilizing the cells, the number of the cells which had migrated on the bottom portion of the culture dish, where a part of the cells had been scraped off, was counted. The inhibition ratio of cell migration was calculated by the following equation. Inhibition ratio of cell migration (%) = (1 - the number of cells which had migrated in the presence of the test compound/the number of cells which had migrated in the absence of the test compound) × 100 [formula]", "units": {"Inhibition ratio of cell migration (%) ± SD": "%"}, "values": [
      {"smiles": "CC[C@H](C)[C@H](NC(=O)[C@H](CO)NC(=O)[C@H](C)NC(=O)[C@@H]1CCCN1C(=O)[C@H](CO)NC(=O)[C@H](Cc1c[nH]c2ccccc12)NC(=O)[C@@H](NC(=O)[C@@H](NC(=O)[C@H](Cc1c[nH]c2ccccc12)NC(=O)[C@H](CCC(=O)O)NC(=O)[C@H](CO)NC(=O)[C@@H](N)CCSC)[C@@H](C)CC)[C@@H](C)O)C(=O)N[C@@H](CO)C(=O)N[C@@H](C)C(=O)NCC(N)=O", "note": "[Compound 1, H-Met-Ser-Glu-Trp-Ile-Thr-Trp-Ser-Pro-Ala-Ser-Ile-Ser-Ala-Gly-NH2] (H-MSEWITWSPASISAG-NH2)", "Inhibition ratio of cell migration (%) ± SD": "24.5±4.9"},
      {"smiles": "CC(C)C[C@H](NC(=O)[C@H](CO)NC(=O)[C@@H](N)CC(C)C)C(=O)N[C@@H](Cc1c[nH]c2ccccc12)C(=O)N[C@@H](CO)C(=O)N[C@@H](CCC(=O)O)C(=O)N[C@@H](Cc1c[nH]c2ccccc12)C(=O)N[C@@H](CO)C(=O)N[C@@H](CC(=O)O)C(=O)N[C@@H](C)C(=O)N[C@@H](CO)C(=O)N[C@H](C(=O)N[C@H](C(=O)N[C@@H](C)C(=O)NCC(N)=O)[C@@H](C)O)C(C)C", "note": "[Compound 2, H-Leu-Ser-Leu-Trp-Ser-Glu-Trp-Ser-Asp-Ala-Ser-Val-Thr-Ala-Gly-NH2] (H-LSLWSEWSDASVTAG-NH2)", "Inhibition ratio of cell migration (%) ± SD": "41.5±2.1"},
      {"smiles": "C[C@H](NC(=O)[C@H](C)NC(=O)[C@H](CO)NC(=O)[C@H](Cc1c[nH]c2ccccc12)NC(=O)[C@@H]1CCCN1C(=O)[C@H](CO)NC(=O)[C@H](Cc1c[nH]c2ccccc12)NC(=O)[C@H](CC(N)=O)NC(=O)[C@H](CO)NC(=O)[C@@H](N)Cc1ccc(O)cc1)C(=O)N[C@@H](CO)C(=O)N[C@@H](CO)C(=O)N[C@@H](CO)C(=O)N[C@H](C(=O)N[C@@H](C)C(=O)N[C@@H](CC(=O)O)C(N)=O)[C@@H](C)O", "note": "[Compound 3, H-Tyr-Ser-Asn-Trp-Ser-Pro-Trp-Ser-Ala-Ala-Ser-Ser-Ser-Thr-Ala-Asp-NH2] (H-YSNWSPWSAASSSTAD-NH2)", "Inhibition ratio of cell migration (%) ± SD": "12.3±10.0"},
      {"smiles": "CSCC[C@H](N)C(=O)N[C@H](C(=O)N[C@@H](CCC(=O)O)C(=O)N[C@@H](Cc1c[nH]c2ccccc12)C(=O)NCC(=O)N[C@@H](CCC(=O)O)C(=O)N[C@@H](Cc1c[nH]c2ccccc12)C(=O)N[C@@H](CC(=O)O)C(=O)N[C@@H](CCC(=O)O)C(=O)N[C@@H](C)C(=O)N[C@@H](CO)C(=O)N[C@@H](C)C(=O)N[C@H](C(=O)N[C@@H](C)C(=O)NCC(N)=O)[C@@H](C)O)[C@@H](C)O", "note": "[Compound 4, H-Met-Thr-Glu-Trp-Gly-Glu-Trp-Asp-Glu-Ala-Ser-Ala-Thr-Ala-Gly-NH2] (H-MTEWGEWDEASATAG-NH2)", "Inhibition ratio of cell migration (%) ± SD": "7.4±13.2"},
      {"smiles": "CC(C)C[C@H](N)C(=O)N[C@H](C(=O)N[C@@H](CCC(=O)O)C(=O)N[C@@H](Cc1c[nH]c2ccccc12)C(=O)N[C@@H](CO)C(=O)N[C@@H](CCC(N)=O)C(=O)N[C@@H](Cc1c[nH]c2ccccc12)C(=O)N[C@@H](CO)C(=O)N[C@@H](CCC(=O)O)C(=O)N[C@@H](C)C(=O)N[C@@H](CC(N)=O)C(=O)N[C@@H](CCCCN)C(=O)N[C@@H](CO)C(=O)N[C@@H](C)C(=O)NCC(N)=O)[C@@H](C)O", "note": "[Compound 5, H-Leu-Thr-Glu-Trp-Ser-Gln-Trp-Ser-Glu-Ala-Asn-Lys-Ser-Ala-Gly-NH2] (H-LTEWSQWSEANKSAG-NH2)", "Inhibition ratio of cell migration (%) ± SD": "10.8±6.0"},
      {"smiles": "CSCC[C@H](N)C(=O)N[C@@H](CCCNC(=N)N)C(=O)N1CCC[C@H]1C(=O)N[C@@H](Cc1c[nH]c2ccccc12)C(=O)N[C@H](C(=O)N[C@@H](C)C(=O)N[C@@H](Cc1c[nH]c2ccccc12)C(=O)N[C@@H](CO)C(=O)N[C@@H](CCC(=O)O)C(=O)N[C@@H](C)C(=O)N[C@H](C(=O)N[C@@H](CCCCN)C(=O)N[C@@H](CC(C)C)C(=O)N[C@@H](C)C(=O)NCC(N)=O)[C@@H](C)O)[C@@H](C)O", "note": "[Compound 6, H-Met-Arg-Pro-Trp-Thr-Ala-Trp-Ser-Glu-Ala-Thr-Lys-Leu-Ala-Gly-NH2] (H-MRPWTAWSEATKLAG-NH2)", "Inhibition ratio of cell migration (%) ± SD": "5.7±8.0"},
      {"smiles": "CSCC[C@H](NC(=O)[C@H](CCCNC(=N)N)NC(=O)[C@H](CCCCN)NC(=O)CNC(=O)[C@H](CCCCN)NC(=O)[C@@H](N)CC(=O)O)C(=O)N[C@@H](CCCNC(=N)N)C(=O)N[C@@H](CCC(N)=O)C(=O)N[C@@H](CCCNC(=N)N)C(=O)N[C@@H](CCSC)C(=O)N[C@@H](CC(C)C)C(=O)N[C@@H](CCCCN)C(=O)N[C@@H](C)C(=O)N[C@@H](CCC(N)=O)C(=O)N[C@@H](CC(C)C)C(N)=O", "note": "[Compound 7, H-Asp-Lys-Gly-Lys-Arg-Met-Arg-Gln-Arg-Met-Leu-Lys-Ala-Gln-Leu-NH2] (H-DKGKRMRQRMLKAQL-NH2)", "Inhibition ratio of cell migration (%) ± SD": "9.3±1.6"},
      {"smiles": "CC[C@H](C)[C@H](NC(=O)[C@H](CCSC)NC(=O)[C@H](CCCNC(=N)N)NC(=O)[C@H](Cc1c[nH]cn1)NC(=O)[C@H](CCCNC(=N)N)NC(=O)[C@H](CCCCN)NC(=O)[C@H](CCCCN)NC(=O)[C@@H](N)CCSC)C(=O)N[C@@H](CCCCN)C(=O)N[C@@H](CCSC)C(=O)N[C@@H](CC(N)=O)C(=O)N1CCC[C@H]1C(=O)N[C@@H](C)C(=O)N[C@@H](CC(=O)O)C(=O)NCC(N)=O", "note": "[Compound 8, H-Met-Lys-Lys-Arg-His-Arg-Met-Ile-Lys-Met-Asn-Pro-Ala-Asp-Gly-NH2] (H-MKKRHRMIKMNPADG-NH2)", "Inhibition ratio of cell migration (%) ± SD": "7.2±1.2"},
      {"smiles": "CC[C@H](C)[C@H](NC(=O)[C@H](CCSC)NC(=O)[C@H](CCCNC(=N)N)NC(=O)[C@@H](NC(=O)[C@H](CCCNC(=N)N)NC(=O)[C@@H](NC(=O)[C@@H](NC(=O)[C@H](Cc1c[nH]cn1)NC(=O)CNC(=O)[C@H](CCCCN)NC(=O)CN)C(C)C)[C@@H](C)CC)[C@@H](C)O)C(=O)N[C@@H](CCC(N)=O)C(=O)N[C@@H](CCSC)C(=O)N[C@@H](CCC(=O)O)C(N)=O", "note": "[Compound 9, H-Gly-Lys-Gly-His-Val-Ile-Arg-Thr-Arg-Met-Ile-Gln-Met-Glu-NH2] (H-GKGHVIRTRMIQME-NH2)", "Inhibition ratio of cell migration (%) ± SD": "3.9±1.6"},
      {"smiles": "CC[C@H](C)[C@H](NC(=O)[C@H](CCCNC(=N)N)NC(=O)[C@H](C)NC(=O)[C@H](CCCCN)NC(=O)[C@H](CCCCN)NC(=O)[C@H](CCCNC(=N)N)NC(=O)[C@H](CCC(N)=O)NC(=O)[C@@H](NC(=O)[C@@H](NC(=O)[C@H](CCC(=O)O)NC(=O)[C@@H]1CCCN1C(=O)[C@H](C)NC(=O)[C@@H]1CCCN1)[C@@H](C)O)C(C)C)C(=O)N[C@@H](CCCNC(=N)N)C(=O)N[C@@H](CCCCN)C(N)=O", "note": "[Compound 10, H-Pro-Ala-Pro-Glu-Thr-Val-Gln-Arg-Lys-Lys-Ala-Arg-Ile-Arg-Lys-NH2] (H-PAPETVQRKKARIRK-NH2)", "Inhibition ratio of cell migration (%) ± SD": "20.6±1.9"},
      {"smiles": "CSCC[C@H](NC(=O)[C@H](Cc1ccc(O)cc1)NC(=O)[C@@H](N)CCCNC(=N)N)C(=O)N[C@H](C(=O)N[C@H](C(=O)N[C@@H](CCCCN)C(=O)N[C@@H](CCCCN)C(=O)N[C@@H](CCCNC(=N)N)C(=O)N[C@@H](Cc1ccccc1)C(=O)N[C@@H](CCCCN)C(=O)N[C@@H](CO)C(=O)N[C@@H](CO)C(=O)N[C@@H](CCC(N)=O)C(=O)N[C@@H](Cc1ccccc1)C(=O)N[C@H](C(N)=O)[C@@H](C)O)C(C)C)[C@@H](C)O", "note": "[Compound 11, H-Arg-Tyr-Met-Thr-Val-Lys-Lys-Arg-Phe-Lys-Ser-Ser-Gln-Phe-Thr-NH2] (H-RYMTVKKRFKSSQFT-NH2)", "Inhibition ratio of cell migration (%) ± SD": "12.2±10.7"}
    ]}
  ]
}
